Assay results as given in US8182837B2, “Methods and compositions for reducing the risk associated with the administration of opioid analgesics in patients with diagnosed or undiagnosed respiratory illness” (QRxPharma Limited, priority 2003, dated 2012).
Like-named read-outs stand apart in the source and are kept apart here.

How the values were obtained:
[1] = cited from earlier work; for lower threshold for an initial dosage resulting in production of analgesia: naive human adult
[2] = P=0.033; of borderline clinical significance

| SMILES | lower threshold for an initial dosage resulting in production of analgesia ([1]; intravenous route) | lower threshold for an initial dosage resulting in production of analgesia ([1]; oral route) | difference mean, pre-treatment VAS greater than steady-state VAS [2] | analgesic potency relative to morphine (as a function of mass of dose) ([1]; in vivo) |
| --- | --- | --- | --- | --- |
| CN1CC[C@]23c4c5ccc(O)c4O[C@H]2[C@@H](O)C=C[C@H]3[C@H]1C5 [Morphine, morphine] | 4-5 mg every four hours | 30 mg every four hours | 1.2 cm |  |
| COc1ccc2c3c1O[C@H]1C(=O)CC[C@@]4(O)[C@@H](C2)N(C)CC[C@]314 [oxycodone] |  | 10 mg every four hours |  | about 1.5 times |
